Measurements published in patent US12391674B2, “Heterocyclic compounds for the treatment of epilepsy” (OTSUKA PHARMACEUTICAL CO., LTD., priority 2018, dated 2025).

The compounds below were run on DBA/2 mice (assay: Audiogenic seizure model). Details: Mus musculus, po, 1 h, read-out: Seizure suppression.
Type: in vivo
Protocol: The animal model used in this test is a phenotype model for partial seizure (including secondary generalized seizure) and generalized tonic-clonic seizure, and has high clinical predictability. This test was performed in accordance with the report of De Sarro et al (Br J Pharmacol. 1988 February; 93 (2): 247-56. Anticonvulsant effects of some calcium entry blockers in DBA/2 mice. De Sarro G B, Meldrum B S, Nistico G.).
In this test example, the example compounds shown in Tables 3-1 to 3-3 below were used as test compounds.
The test compounds were suspended in 5% gum arabic/distilled water (w/v), and administered by forced oral administration to male and female DBA/2 mice (Japan SLC, Inc., 3 weeks old, 8 per group) at a dose of 30 mg/kg. After one hour of the oral administration of the test compound, each mouse was placed in a transparent acrylic cylinder 30 cm high and 23 cm in diameter, and 30 seconds were allowed for habituation. Then, they were exposed to auditory stimulation (12.6 kHz, 100-110 dB) for 1 minute or until a tonic seizure occurred.
The seizure response was assessed using the following scale, 0: no seizure, 1: wild running, 2: clonic seizure, 3: tonic seizure and 4: respiratory arrest. The maximum response was recorded as the seizure severity score.
The seizure suppression rate for each compound administration group was calculated according to the following formula.
Here, a rate of seizure suppression of 90% or more was expressed as “A”, a rate of seizure suppression of 70% or more and less than 90% was expressed as “B”, and a rate of seizure suppression of 50% or more and less than 70% was expressed as “C”.
Work on Cc1ncccc1-c1cnc(Oc2cc(F)cc(F)c2)nc1 [Example 56] yielded an inhibition in vivo at 30 mg/kg of over 90%.

Same assay, conditions: Mus musculus; DBA/2 mice, oral, dose 3 mg/kg, auditory stimulation 1 hour after administration; read-out: Seizure suppression
COc1ccc(-c2cnc(Oc3cccc(C(F)(F)F)c3)nc2)nn1 [Example 12] gave an inhibition in vivo at 3 mg/kg of over 90%.

Same assay, conditions: Mus musculus; DBA/2 mice, oral, dose 5 mg/kg, auditory stimulation 1 hour after administration; read-out: Seizure suppression
For COc1ccc(-c2cnc(Oc3ccc(F)cc3)nc2)nn1 [Example 5], the inhibition in vivo at 5 mg/kg was over 90%.
For c1ccc(Oc2ncc(-c3ccn4nncc4c3)cn2)cc1 [Example 184], the inhibition in vivo at 5 mg/kg was over 90%.
For c1cncc(Oc2ncc(-c3ccc4nccn4c3)cn2)c1 [Example 294], the inhibition in vivo at 5 mg/kg was over 90%.
Fc1cccc(F)c1Oc1ncc(-c2ccc3nccn3c2)cn1 [Example 167] showed an inhibition in vivo at 5 mg/kg of over 90%.
Compound Cc1cccc(Oc2ncc(-c3ccc(=O)[nH]c3)cn2)c1 [Example 106, 5-(2-(m-Tolyloxy)Pyrimidin-5-Yl)Pyridin-2 (1H)-One] has an inhibition in vivo at 5 mg/kg of over 90%.
With Fc1ccc(Oc2ncc(-c3ccc4nccn4c3)cn2)c(F)c1 [Example 165] the inhibition in vivo at 5 mg/kg was over 90%.

Same assay, conditions: Mus musculus; DBA/2 mice, oral, dose 30 mg/kg, auditory stimulation 1 hour after administration; read-out: Seizure suppression
Work on Cc1ncccc1-c1cnc(Oc2ccccc2)nc1 [Example 34] yielded an inhibition in vivo at 30 mg/kg of over 90%.
Compound Cc1cn2ccc(-c3cnc(Oc4ccccc4F)nc3)cc2n1 [Example 182] has an inhibition in vivo at 30 mg/kg of over 90%.
In the case of Cc1ccc(-c2cnc(Oc3cccc(C(F)(F)F)c3)nc2)cn1 [Example 15], the inhibition in vivo at 30 mg/kg is reported as over 90%.
Compound Nc1ccc(-c2cnc(Oc3cc(F)cc(F)c3)nc2)nn1 [Example 41] has an inhibition in vivo at 30 mg/kg of over 90%.
COc1nc(Oc2ccccc2)ncc1-c1ccc2nccn2n1 [Example 160] showed an inhibition in vivo at 30 mg/kg of over 90%.
Work on Nc1ccc(-c2cnc(Oc3ccc(F)c(F)c3)nc2)cn1 [Example 85] yielded an inhibition in vivo at 30 mg/kg of over 90%.
Nc1cn2cc(-c3cnc(Oc4ccccc4)nc3)ccc2n1 [Example 140] gave an inhibition in vivo at 30 mg/kg of over 90%.
Compound O=c1ccn(-c2ccc(Oc3ccccc3)nn2)c(=O)[nH]1 [Example 346, 1-(6-Phenoxypyridazin-3-Yl)Pyrimidine-2,4 (1H,3H)-Dione] has an inhibition in vivo at 30 mg/kg of 50 to 70%.
In the case of Fc1cccc(Oc2ncc(-c3ccc4ccnn4c3)cn2)c1 [Example 153], the inhibition in vivo at 30 mg/kg is reported as over 90%.
For Cc1ncccc1-c1cnc(Oc2cccc(F)c2)nc1 [Example 47], the inhibition in vivo at 30 mg/kg was over 90%.
Compound FC(F)(F)c1cccc(Oc2ncc(-c3cccnc3)cn2)c1 [Example 14] has an inhibition in vivo at 30 mg/kg of over 90%.
Cc1ncccc1-c1cnc(Oc2c(F)cccc2F)nc1 [Example 54] showed an inhibition in vivo at 30 mg/kg of over 90%.
Nc1cc(-c2cnc(Oc3ccc(F)cc3)nc2)ccn1 [Example 79] showed an inhibition in vivo at 30 mg/kg of over 90%.
In the case of c1ccc(Oc2ncc(-c3cccc4nccn34)cn2)cc1 [Example 136], the inhibition in vivo at 30 mg/kg is reported as over 90%.
Cc1nc(Oc2ccccc2)ccc1N1CCC(=O)NC1=O [Example 326] was tested, and the inhibition in vivo at 30 mg/kg was 50 to 70%.
Compound c1ccc(Oc2ncc(-c3ccc4ncccc4c3)cn2)cc1 [Example 250] has an inhibition in vivo at 30 mg/kg of over 90%.
With Cc1cc(Oc2cccc(C(F)(F)F)c2)ccc1N1CCC(=O)NC1=O [Example 335] the inhibition in vivo at 30 mg/kg was 70 to 90%.
With Fc1cccc(Oc2ncc(-c3ccn4cc(C(F)(F)F)nc4c3)cn2)c1 [Example 218] the inhibition in vivo at 30 mg/kg was over 90%.
Cn1ncc2ccc(-c3cnc(Oc4ccccc4F)nc3)nc21 [Example 276] gave an inhibition in vivo at 30 mg/kg of over 90%.
In the case of [O-][n+]1cccc(-c2cnc(Oc3ccccc3F)nc2)c1 [Example 60, 3-(2-(2-Fluorophenoxy)Pyrimidin-5-Yl)Pyridine 1-Oxide], the inhibition in vivo at 30 mg/kg is reported as over 90%.
With Nc1ccc(-c2cnc(Oc3cccc(F)c3F)nc2)cn1 [Example 87] the inhibition in vivo at 30 mg/kg was over 90%.
O=C1CCN(c2ccc(Oc3ccc(S(F)(F)(F)(F)F)cc3)cc2)C(=O)N1 [Example 317] showed an inhibition in vivo at 30 mg/kg of 50 to 70%.
With Cc1c(-c2cnc(Oc3ccc(F)cc3)nc2)ccc2nccn12 [Example 201] the inhibition in vivo at 30 mg/kg was over 90%.
Nc1cc(-c2cnc(Oc3cccc(OC(F)(F)F)c3)nc2)ccn1 [Example 83] showed an inhibition in vivo at 30 mg/kg of over 90%.
Work on Nc1nccc(-c2cnc(Oc3ccccc3)nc2)n1 [Example 75] yielded an inhibition in vivo at 30 mg/kg of over 90%.
O=C1CCN(c2cc(F)c(Oc3ccccc3)c(F)c2)C(=O)N1 [Example 330] showed an inhibition in vivo at 30 mg/kg of 50 to 70%.
Fc1cccc(Oc2ncc(-c3ccn4nccc4c3)cn2)c1 [Example 196] gave an inhibition in vivo at 30 mg/kg of over 90%.
FC(F)(F)c1cccc(-c2cnc(Oc3ccccc3)nc2)n1 [Example 301] was tested, and the inhibition in vivo at 30 mg/kg was over 90%.
With Nc1ccc(-c2cnc(Oc3ccc(F)cc3)nc2)nn1 [Example 20] the inhibition in vivo at 30 mg/kg was over 90%.
Work on Cc1ccc(-c2cnc(Oc3ccccc3F)nc2)nn1 [Example 25] yielded an inhibition in vivo at 30 mg/kg of over 90%.
In the case of Cc1cn2cc(-c3cnc(Oc4ccc(F)cc4)nc3)ccc2n1 [Example 180], the inhibition in vivo at 30 mg/kg is reported as over 90%.
O=c1ccc(-c2cnc(Oc3ccc(F)cc3F)nc2)n[nH]1 [Example 109] gave an inhibition in vivo at 30 mg/kg of over 90%.
O=C1CCN(c2ccc(Cc3ccc(F)cc3)cc2)C(=O)N1 [Example 338] showed an inhibition in vivo at 30 mg/kg of 50 to 70%.
For Fc1ccccc1Oc1ncc(-c2cn3ccnc3cn2)cn1 [Example 149], the inhibition in vivo at 30 mg/kg was over 90%.
For COCc1cn2cc(-c3cnc(Oc4ccccc4)nc3)ccc2n1 [Example 208], the inhibition in vivo at 30 mg/kg was over 90%.
In the case of Fc1ccccc1Oc1ncc(-c2ccc3cncn3c2)cn1 [Example 156], the inhibition in vivo at 30 mg/kg is reported as over 90%.
In the case of COc1nc(Oc2ccccc2)ncc1-c1ccc2nccn2c1 [Example 142], the inhibition in vivo at 30 mg/kg is reported as over 90%.
Fc1ccccc1Oc1ncc(-c2ccc3ncnn3c2)cn1 [Example 144] gave an inhibition in vivo at 30 mg/kg of over 90%.
For [O-][n+]1cccc(-c2cnc(Oc3cccc(F)c3)nc2)c1 [Example 61], the inhibition in vivo at 30 mg/kg was over 90%.
In the case of Cc1ccc(-c2cnc(Oc3ccccc3)nc2)c(C)n1 [Example 70], the inhibition in vivo at 30 mg/kg is reported as over 90%.
Fc1ccccc1Oc1ncc(-c2ccc3ccnn3c2)cn1 [Example 152] was tested, and the inhibition in vivo at 30 mg/kg was over 90%.
Compound O=C1CCN(c2ccc(Cc3cccc(C(F)(F)F)c3)cc2)C(=O)N1 [Example 341] has an inhibition in vivo at 30 mg/kg of 50 to 70%.
Fc1ccc(Oc2ncc(-c3ccc4cnnn4c3)cn2)cc1 [Example 176] was tested, and the inhibition in vivo at 30 mg/kg was over 90%.
Work on Fc1ccccc1Oc1ncc(-c2ccc3cnc(C(F)(F)F)n3c2)cn1 [Example 286] yielded an inhibition in vivo at 30 mg/kg of over 90%.
Nc1nc2ccc(-c3cnc(Oc4ccccc4)nc3)cc2s1 [Example 240, 6-(2-Phenoxypyrimidin-5-Yl)Benzo[d]Thiazol-2-Amine] showed an inhibition in vivo at 30 mg/kg of over 90%.
O=C1NCCc2cc(-c3cnc(Oc4ccccc4)nc3)ccc21 [Example 247] was tested, and the inhibition in vivo at 30 mg/kg was over 90%.
O=c1ccc(-c2cnc(Oc3cccc(F)c3F)nc2)n[nH]1 [Example 110] showed an inhibition in vivo at 30 mg/kg of over 90%.
In the case of COc1ccc(-c2cnc(Oc3cccc(Cl)c3)nc2)nn1 [Example 71], the inhibition in vivo at 30 mg/kg is reported as over 90%.
With Cc1nc2cc(-c3cnc(Oc4ccccc4)nc3)ccc2s1 [Example 238] the inhibition in vivo at 30 mg/kg was over 90%.
Cc1cnc2ccc(-c3cnc(Oc4ccc(F)cc4)nc3)cn12 [Example 193] was tested, and the inhibition in vivo at 30 mg/kg was over 90%.
Nc1ccc(-c2cnc(Oc3c(F)cccc3F)nc2)cn1 [Example 52] was tested, and the inhibition in vivo at 30 mg/kg was over 90%.
Work on Fc1cccc(Oc2ncc(-c3ccn4cnnc4c3)cn2)c1 [Example 212] yielded an inhibition in vivo at 30 mg/kg of over 90%.
COc1ccc(-c2cnc(Oc3ccc(F)cc3F)nc2)nn1 [Example 65] was tested, and the inhibition in vivo at 30 mg/kg was over 90%.
Compound Fc1ccccc1Oc1ncc(-c2ccc3nnc(C(F)(F)F)n3c2)cn1 [Example 280] has an inhibition in vivo at 30 mg/kg of over 90%.
With Fc1cccc(Oc2ncc(-c3ccc4nccn4n3)cn2)c1 [Example 125] the inhibition in vivo at 30 mg/kg was over 90%.
OCc1ccc(-c2cnc(Oc3ccccc3)nc2)nn1 [Example 72, (6-(2-Phenoxypyrimidin-5-Yl)Pyridazin-3-Yl) Methanol] gave an inhibition in vivo at 30 mg/kg of over 90%.
O=C1Cc2cc(-c3cnc(Oc4ccc(F)cc4)nc3)ccc2N1 [Example 266] gave an inhibition in vivo at 30 mg/kg of over 90%.
Work on Fc1ccc(Oc2ncc(-c3ccc4nnc(C(F)(F)F)n4c3)cn2)cc1 [Example 282] yielded an inhibition in vivo at 30 mg/kg of over 90%.

These compounds were tested on ICR mice (assay: Rotarod test (motor coordination)). Details: oral, dose 5 mg/kg, rotarod 1 hour after administration.
Type: in vivo, mouse
Protocol: This test is performed to evaluate the effect of the compound on the motor coordination. In this test example, the example compounds shown in Table 4 below were used as test compounds. Male ICR mice (Japan SLC, Inc., 5-6 weeks, 8 per group) were trained to remain on a fixed speed (15 rpm) rotating rod of rotarod apparatus (Muromachi Kikai Co., Ltd.) for 2 minutes. […] After 1 hour of oral administration, the mice were again placed on the rod accelerated from 4 rpm to 40 rpm over 5 minutes and the latency to fall off the rod was recorded for 200 seconds. The falling latency of the compound administration group was calculated as a relative value relative to the average value of the falling latency in the solvent administration group. Here, a coordination disorder of 25% or less was expressed as “A”, and a coordination disorder of more than 25% and 50% or less was expressed as “B”.
For COc1ccc(-c2cnc(Oc3ccc(F)cc3)nc2)nn1 [Example 5], the Motor dysfunction was “A (a coordination disorder of 25% or less)”.
With c1ccc(Oc2ncc(-c3ccn4nncc4c3)cn2)cc1 [Example 184] the Motor dysfunction was “A (a coordination disorder of 25% or less)”.
With c1cncc(Oc2ncc(-c3ccc4nccn4c3)cn2)c1 [Example 294] the Motor dysfunction was “A (a coordination disorder of 25% or less)”.

Same assay, conditions: oral, dose 30 mg/kg, rotarod 1 hour after administration
Cc1ncccc1-c1cnc(Oc2ccccc2)nc1 [Example 34] was tested, and the Motor dysfunction was “A (a coordination disorder of 25% or less)”.
For O=C1CCN(c2ccc(Oc3cccc(OC(F)(F)F)c3)cc2)C(=O)N1 [Example 306], the Motor dysfunction was “A (a coordination disorder of 25% or less)”.
